# Experimental data reported in patent EP0437367A2, “Compositions and methods for inhibiting osteoclast cellular adhesion to bone” (MERCK & CO. INC., priority 1990, dated 1991).
# Bridge positions count the residues as written; N and C are the ends.
# Experiments:
# Format in all cases: cell-based
# chicken osteoclasts [1] = assay: resorption by chicken osteoclasts, release of 3H proline from labelled bone particles
# Procedure: Osteoclasts from the long bones of egg laying hens were isolated by the methods of Zambonin Zallone et al. (1989) and Blair et al., J. Cell Biol. 102: 1164-1172 (1986). Medullary bone was harvested with scalpels from split femora and tibiae of laying hens (Dekalb XL) that were on a Ca deficient diet (5070C- 9, Purina Mills Inc., St. Louis) for 3-6 wks. After washing in PBS 4°C, the suspension was pressed through a 110 um nylon mesh and then osmotically shocked in 0.2% NaCl for 3 min 37°C to lyse red blood cells. The cells were collected at 350xg (5 min, 4°C), and osteoclasts were sedimented through 70% serum for 90 min at 4°C in 50 ml tubes (Fisher). The bottom 5 ml was then layered over a 3 step (1.073, 1.099, 1.143 g/cm³) Nycodenz gradient (Accurate, Ct) and spun at 350xg, 20 min, 4°C. […] Cells excluding trypan blue (Gibco) were immediately counted on a hemocytometer (Fisher) and aliquoted at 1-2x 10⁶ total cells (not counting red blood cells)/ well of 48 well plates (Costar), no. […]
# Therefore, for 1 day resorption experiments, unlabelled bone particles (50 ug, <20 um fraction) were first added to chicken cells at day 3 followed by labelled bone (100 ug, 20- 53 um) plus test compounds (Merck) at day 5. Alternatively, labelled bone (100 ug) plus compounds were added at day 3 and the media counted at day 6 with a LKB liquid scintillation counter. […]
# rat osteoclasts [2] = biological target: T1, rat osteoclasts (Rattus norvegicus, UniProt F1LZX9+Q8R2H2); assay: bone slice resorption assay with rat osteoclasts; settings: range 1pM- 10 uM, P>0.07, Graph 3a
# T1 sequence (F1LZX9 31-1043): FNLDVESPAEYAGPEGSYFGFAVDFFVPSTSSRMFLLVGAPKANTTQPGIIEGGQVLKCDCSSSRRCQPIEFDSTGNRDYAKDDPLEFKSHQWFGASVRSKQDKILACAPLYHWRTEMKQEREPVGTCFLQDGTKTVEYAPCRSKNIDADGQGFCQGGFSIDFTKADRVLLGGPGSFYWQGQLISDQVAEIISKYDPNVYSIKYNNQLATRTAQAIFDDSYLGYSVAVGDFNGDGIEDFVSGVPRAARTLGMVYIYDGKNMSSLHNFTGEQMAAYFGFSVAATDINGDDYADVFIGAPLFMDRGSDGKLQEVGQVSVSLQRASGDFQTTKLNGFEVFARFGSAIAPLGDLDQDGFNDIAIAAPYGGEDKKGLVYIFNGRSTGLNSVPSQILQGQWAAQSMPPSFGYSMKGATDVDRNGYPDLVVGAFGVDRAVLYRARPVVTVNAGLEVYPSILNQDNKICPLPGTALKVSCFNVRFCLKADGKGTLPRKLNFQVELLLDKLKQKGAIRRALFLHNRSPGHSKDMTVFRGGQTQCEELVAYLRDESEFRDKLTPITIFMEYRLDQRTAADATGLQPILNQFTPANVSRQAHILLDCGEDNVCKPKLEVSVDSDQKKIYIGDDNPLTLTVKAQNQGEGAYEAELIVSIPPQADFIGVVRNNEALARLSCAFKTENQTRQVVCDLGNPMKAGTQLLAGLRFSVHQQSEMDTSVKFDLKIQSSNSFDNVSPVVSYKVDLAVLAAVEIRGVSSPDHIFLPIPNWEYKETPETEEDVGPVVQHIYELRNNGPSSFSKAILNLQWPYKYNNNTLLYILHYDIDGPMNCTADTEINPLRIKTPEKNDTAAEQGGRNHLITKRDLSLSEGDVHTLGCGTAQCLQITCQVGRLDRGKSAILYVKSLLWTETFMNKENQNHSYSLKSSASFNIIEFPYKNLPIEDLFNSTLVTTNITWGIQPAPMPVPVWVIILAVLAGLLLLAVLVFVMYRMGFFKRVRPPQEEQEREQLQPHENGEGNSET
# T1 sequence (Q8R2H2 26-787): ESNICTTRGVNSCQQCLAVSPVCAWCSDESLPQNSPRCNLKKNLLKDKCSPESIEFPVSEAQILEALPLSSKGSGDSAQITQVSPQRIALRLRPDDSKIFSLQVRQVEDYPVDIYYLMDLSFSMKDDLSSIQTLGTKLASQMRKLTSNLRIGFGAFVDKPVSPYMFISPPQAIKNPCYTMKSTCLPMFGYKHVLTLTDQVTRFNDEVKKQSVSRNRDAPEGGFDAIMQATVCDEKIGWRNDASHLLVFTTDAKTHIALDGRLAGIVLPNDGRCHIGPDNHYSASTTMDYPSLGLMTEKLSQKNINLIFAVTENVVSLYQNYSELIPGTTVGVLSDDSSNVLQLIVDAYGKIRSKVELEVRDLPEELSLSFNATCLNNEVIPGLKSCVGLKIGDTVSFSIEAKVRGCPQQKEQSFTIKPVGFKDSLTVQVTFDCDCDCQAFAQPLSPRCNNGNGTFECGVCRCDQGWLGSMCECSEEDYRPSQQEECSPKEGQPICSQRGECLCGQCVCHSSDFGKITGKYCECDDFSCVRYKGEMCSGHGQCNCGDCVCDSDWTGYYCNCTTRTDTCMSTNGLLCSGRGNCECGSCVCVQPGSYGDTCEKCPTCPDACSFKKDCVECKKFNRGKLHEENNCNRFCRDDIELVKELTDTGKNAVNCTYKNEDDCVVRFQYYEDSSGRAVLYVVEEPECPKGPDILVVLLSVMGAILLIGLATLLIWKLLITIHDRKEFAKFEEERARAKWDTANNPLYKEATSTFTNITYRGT
# Procedure: Osteoclasts, large multinucleated cells up to 400 microns in diameter and with abundant acidophilic cytoplasm which function in the absorption and removal of osseous tissue, use the integrin receptor to bind bone as part of the mechanism of bone resorption. […] Based on the release of [³H] proline from labelled bone particles, the IC₅₀ of chicken osteoclast resorption was 100 nM. By comparison, the RGDS synthetic tetrapeptide inhibited rat or chicken resorption with an IC₅₀ of 0.1 mM. Attachment experiments with chicken osteoclasts and bone particles labelled with [³H] proline confirmed that the mechanism of action of echistatin is to inhibit osteoclast binding to bone. Echistatin induces the retraction of osteoclast lamellipodia in a manner reminiscent of 1 nM calcitonin or 1 uM prostaglandin E₂.
# Osteoclasts were isolated from the long bones of 1-3 day old rats as described by Chambers et al., J. Cell Sci. 66: 383-399 (1984). […]
# Resorption of rat and some chicken osteoclasts was measured by using bone slices (4.4 x 4.4 x 0.2 mm) from the diaphysis of bovine femur (Isomet, Buehler Ltd., Lake Bluff, IL) which were cut with a low speed diamond saw as described by Arnett and Dempster, 1986. […] Resorption pits were quantitated by reflected light microscopy with crossed polarizers and rotatable lambda/4 plate (Sato and Grasser, J. Bone Min. Res. in press).
# chicken osteoclasts [3] = assay: attachment assay of 3H proline labelled bone particles to chicken osteoclasts; settings: chicken osteoclasts after 5-6 days culture
# Procedure: Attachment of ³H proline labelled bone particles (20- 53 um) was followed with time by assaying free and bound pools. Chicken osteoclasts in 48 well plates were given 100 ug of labelled bone particles. Free was defined as particles liberated by 3x swirling of cultures with media. Bound was defined as particles liberated after 6 hr incubation and 2x swirling in 1N NaOH. All cells were completely disrupted by the latter treatment. Samples were then ashed in a Packard 306 oxidizer (Camberra Inst., NJ) and counted (LKB).
# Free end bound particles of bone labelled with [³H] proline were assayed as a function of incubation time with chicken osteoclasts after 5-6 days culture at 37°C. […] At this echistatin concentration, resorption was inhibited by 40% with little effect on osteoclast morphology.
# rat osteoclasts [4] = biological target: T1, rat osteoclasts; assay: retraction of lamellipodia of rat osteoclasts
# Excerpt: Osteoclasts were isolated from the long bones of 1-3 day old rats as described by Chambers et al., J. Cell Sci. 66: 383-399 (1984). Femora, tibiae and humera were dissected clean of soft tissue, split and scrapped with scalpels into 199 media pH 7-7.2 + 10% heat inactivated fetal calf serum + 100 U/ml antibiotics (penicillin G, steptomycin, amphotericin B, Gibco, New York). After gentle pipetting 60x with a wide bore pipette, the cell suspension was passed through a 110 um nylon mesh (Spectra) and aliquoted onto plastic dishes (Costar, Cambridge, MA), No. 1 coverslips (Corning, New York), glass cuvettes (Herminus) or bone slices (Arnett and Dempster, Endocrinology 120: 602-608 (1987)). All experiments with rat osteoclast cultures were conducted within the first 24 hr after isolation.
# Rat or chicken osteoclasts were incubated with different concentrations of RGDS, echistatin and Ala²⁴ echistatin. All of these peptides induced morphological changes but rat osteoclasts 1 day after isolation on glass retracted lamellipodia at 10⁵x lower concentrations of echistatin (4.3 nM) compared to RGDS peptide. […] At these concentrations, extension/retraction and ruffling motility of the lamellipodia increased. […]
compound,measurement,setting,value
Ala²⁴ echistatin,effects on the resorption activity,"chicken osteoclasts [1]; range 1pM- 10 uM, P>0.07, Graph 3a",insignificant effects
same,effects on the resorption activity,rat osteoclasts [2],insignificant effects
same,kinetics of bone attachment to osteoclasts,chicken osteoclasts [3]; 10 nM,no significant effect
same,concentration at which lamellipodia retracted,rat osteoclasts [4]; rat osteoclasts 1 day after isolation on glass,34 nM
same,concentration at which lamellipodia did not retract,"rat osteoclasts [4]; rat osteoclasts, followed for up to 2 hr",3.4 nM
CCCCC[C@H](O)/C=C/[C@H]1[C@H](O)CC(=O)[C@@H]1C/C=C\CCCC(=O)O [prostaglandin E₂],IC50,"chicken osteoclasts [1]; Gallus gallus, Osteoclast, 24 h, Graph 2a, 1 day resorption assay, read-out: IC₅₀ of resorption",1 µM
"H-ECESGPCCRNCKFLKEGTICKRARGDDMDDYCNGKTCDCPRNPHKGPAT-OH (disulfide 2-11, 7-32, 8-37, 20-39 (inferred)) [Synthetic Echistatin]",attachment of bone particles to osteoclasts,"chicken osteoclasts [3]; 100 nM, up to 150 min",significantly inhibited
